# From patent publication US6608087B1, “Gyrase inhibitors and uses thereof” (Vertex Pharmaceuticals Incorporated, priority 2000, dated 2003)
# Biological target: E. coli gyrase A2B2 (Escherichia coli, UniProt P0AES6)
# Assay: ATPase assay, E. coli gyrase A2B2 (coupled pyruvate kinase/lactate dehydrogenase)
# Format: biochemical
# Details: 30° C., 0.9 mM ATP, 40 nM enzyme, read-out: Activity against E. coli gyrase (Ki)
# Protocol: The ATP hydrolysis activity of DNA gyrase was measured by coupling the production of ADP through pyruvate kinase/lactate dehydrogenase to the oxidation of NADH. This method has been described previously. (Tamura and Gellert, 1990, J. Biol. Chem.265, 21342-21349).
# ATPase assays were carried out at 30° C. in buffered solutions containing 100 mM TRIS pH 7.6, 1.5 mM MgCl2, and 150 mM KCl. The coupling system contained (final concentrations) 2.5 mM phosphoenol pyruvate, 200 μM nicotinamide adenine dinucleotide (NADH), 1 mM DTT, 30 ug/ml pyruvate kinase, and 10 ug/ml lactate dehydrogenase. 40 nM enzyme (374 kDa Gyr A2B2 from E coli) and a DMSO solution of the inhibitor to a final concentration of 4% were added and the reaction mixture allowed to incubate for 10 minutes at 30° C. The reaction was then started by the addition of ATP to a final concentration of 0.9 mM and the rate of NADH disappearance at 340 nm, measured over the course of 10 minutes. Ki values were determined from rate versus. inhibitor concentration profiles.
row,Structure (SMILES),Ki
1,COC(=O)NCc1cc(-c2sc(-c3ccccc3)nc2N2CCN(Cc3ccccc3)CC2)n[nH]1 [IA-18],500 to 1500 nM
2,COC(=O)NCc1cc(-c2sc(-c3ccccc3)nc2N2CCCCC2C)n[nH]1 (centres unmarked) [IA-30],< 500 nM
3,COC(=O)NCc1cc(-c2sc(-c3ccccc3)nc2N2CCNCC2)n[nH]1 [IA-37],> 1500 nM
4,CC(C)OC(=O)NCc1cc(-c2sc(-c3ccccc3)nc2-c2ccccc2)n[nH]1 [IA-46],> 1500 nM
5,CCOC(=O)c1cc(-c2sc(-c3ccccc3)nc2CN2CCOCC2)n[nH]1 [IA-66],> 1500 nM
6,CCOC(=O)c1cc(-c2sc(-c3ccccc3)nc2CN2CCNCC2)n[nH]1 [IA-67],500 to 1500 nM
7,CCOC(=O)c1cc(-c2sc(-c3ccccc3)nc2CN(CC)CC)n[nH]1 [IA-69],> 1500 nM
8,"CCOC(=O)c1cc(-c2cnn(-c3cccc(Cl)c3)c2C)n[nH]1 [ID-28, 1′-(3-Chloro-phenyl)-5′-methyl-1H,1′H-[3,4′]bipyrazolyl-5-carboxylic Acid Ethyl Ester]",> 1500 nM
